{"source": "patent US9877962B2", "about": "“Piperazinyl derivatives for the treatment of cancer” (priority 2011, dated 2018)", "type_in_all_cases": "cell-based, human", "key": {"HL-60": {"system": "HL-60", "test": "Cytotoxicity test (ViaLight Plus cell proliferation) on HL-60", "conditions": "72 hours' incubation, cell viability vs 0.5% DMSO control", "from_the_text": "(§1) The effects of the compounds of the invention on the proliferation of cancer cells were studied on different human cancer cell lines of different tissue origin (MCF-7: breast cancer, MCF-7/adr adriamycin-resistant breast cancer, HL-60: acute promyelocytic leukaemia, HL-60/R10: doxorubicin-resistant acute promyelocytic leukaemia, HT29: colon adenocarcinoma, Mia Paca2: pancreatic tumour, Panc-1: pancreatic exocrine tumour, SK-OV-3: cisplatin- and adriamycin resistant ovarian cancer). The cancer cells used for this study were incubated at 37° C. in the presence of one of the compounds of the invention added to the culture medium at different concentrations.\n(§2) The cancer cell lines were obtained from ATCC (American Type Culture Collection) for MCF-7, from Hôpital de la Pitié Salpetrière for MCF-7/adr and from Oncodesign (Dijon, France) for HL-60, HL-60/R10, HT29, MiaPaCa2, Panc-1 and SK-OV-3. They were cultured in RPMI 1640 medium containing 2 mM L-Glutamine supplemented with 10% foetal calf serum (Lonza; Verviers, Belgium). All the cell lines were held in culture at 37° C. in a humid atmosphere containing 5% CO2. Cell proliferation was assessed using the ViaLight® Plus Assay Kit (Lonza; Verviers, Belgium) following the manufacturer's instructions. The cells were seeded in 96-well culture plates compatible with luminescence read-off (white plates with transparent bottom) in a proportion of 5 000 to 10 000 cells per well in 100 μl of culture medium. After a pre-incubation time of 24 hours at 37° C., the compounds of the invention dissolved in dimethylsulfoxide (DMSO) were individually added to each well in a proportion of 0.5 μl per well. After 72 hours' incubation at 37° C. in a humid atmosphere containing 5% CO2, 50 μl of lysis buffer were added to each well and 15 minutes later 100 μl of ATP measuring agent were added. The plates were read under a luminometer to evaluate cell viability. The data obtained was processed by computer to obtain the EC50 value i.e. the concentration value of each of the compounds which induces 50% cell viability compared with a control value (0.5% DMSO alone)."}, "HL-60/R10": {"system": "HL-60/R10", "test": "Cytotoxicity test (ViaLight Plus cell proliferation) on HL-60/R10", "conditions": "doxorubicin-resistant line, 72 hours' incubation, cell viability vs 0.5% DMSO control; read-out: EC50 HL60/R10", "from_the_text": "as §1, §2"}, "MCF-7": {"system": "MCF-7", "test": "Cytotoxicity test (ViaLight Plus cell proliferation) on MCF-7", "conditions": "72 hours' incubation, cell viability vs 0.5% DMSO control", "from_the_text": "as §1, §2"}, "MCF-7/adr": {"system": "MCF-7/adr", "test": "Cytotoxicity test (ViaLight Plus cell proliferation) on MCF-7/adr", "conditions": "adriamycin-resistant line, 72 hours' incubation, cell viability vs 0.5% DMSO control", "from_the_text": "as §1, §2"}}}
{"compound": "Cc1cc(Oc2ccccc2)ccc1N(C(=O)CCl)C(C(=O)N1CCN[C@H](C(C)C)C1)c1ccc(F)cc1", "note": "(single isomer, unassigned) [I-8 dia1]", "values": [{"measurement": "IC50", "setting": "HL-60; Homo sapiens, HL-60, 72 h, read-out: EC50 HL-60", "value": 2030, "unit": "nM"}, {"measurement": "EC50", "setting": "HL-60/R10", "value": 54, "unit": "nM"}, {"measurement": "IC50", "setting": "MCF-7; Homo sapiens, MCF7, 72 h, read-out: EC50 MCF-7", "value": 1740, "unit": "nM"}, {"measurement": "EC50", "setting": "MCF-7/adr", "value": 148, "unit": "nM"}]}
{"compound": "Cc1cc(Oc2ccccc2)ccc1N(C(=O)CCl)C(C(=O)N1CCN[C@H](C(C)C)C1)c1ccc(F)cc1", "note": "(single isomer, unassigned) [I-8 dia2]", "values": [{"measurement": "EC50", "setting": "HL-60", "value": 1740, "unit": "nM"}, {"measurement": "EC50", "setting": "HL-60/R10", "value": 312, "unit": "nM"}, {"measurement": "EC50", "setting": "MCF-7", "value": 2410, "unit": "nM"}, {"measurement": "EC50", "setting": "MCF-7/adr", "value": 477, "unit": "nM"}]}
{"compound": "CC[C@@H]1CN(C(=O)C(c2ccc(F)cc2)N(C(=O)CCl)c2ccc(Oc3ccccc3)cc2)CCN1C(=O)OC(C)(C)C", "note": "(single isomer, unassigned; dia1) [I-20 dia1]", "values": [{"measurement": "EC50", "setting": "HL-60", "value": 196, "unit": "nM"}, {"measurement": "EC50", "setting": "HL-60/R10", "value": 80, "unit": "nM"}, {"measurement": "EC50", "setting": "MCF-7", "value": 1570, "unit": "nM"}, {"measurement": "EC50", "setting": "MCF-7/adr", "value": 73, "unit": "nM"}]}
{"compound": "C[C@H]1CN(C(=O)C(c2ccc(F)cc2)N(C(=O)CCl)c2ccc(Oc3ccccc3)cc2)CCN1", "note": "(single isomer, unassigned; dia1) [I-21 dia1]", "values": [{"measurement": "EC50", "setting": "HL-60", "value": 2450, "unit": "nM"}, {"measurement": "EC50", "setting": "HL-60/R10", "value": 13, "unit": "nM"}, {"measurement": "EC50", "setting": "MCF-7", "value": 1950, "unit": "nM"}, {"measurement": "EC50", "setting": "MCF-7/adr", "value": 93, "unit": "nM"}]}
{"compound": "C[C@@H]1CN(C(=O)C(c2ccc(F)cc2)N(C(=O)CCl)c2ccc(Oc3ccccc3)cc2)CCN1", "note": "(single isomer, unassigned; dia1) [I-22 dia1]", "values": [{"measurement": "EC50", "setting": "HL-60", "value": 2000, "unit": "nM"}, {"measurement": "EC50", "setting": "HL-60/R10", "value": 17, "unit": "nM"}, {"measurement": "EC50", "setting": "MCF-7", "value": 569, "unit": "nM"}, {"measurement": "EC50", "setting": "MCF-7/adr", "value": 131, "unit": "nM"}]}
{"compound": "Cc1cc(OC(C)C)ccc1N(C(=O)CCl)C(C(=O)N1CCN[C@@H](C(C)C)C1)c1ccc(F)cc1", "note": "(single isomer, unassigned; dia1) [I-26 dia1]", "values": [{"measurement": "EC50", "setting": "HL-60", "value": 2450, "unit": "nM"}, {"measurement": "EC50", "setting": "HL-60/R10", "value": 13, "unit": "nM"}, {"measurement": "EC50", "setting": "MCF-7", "value": 1950, "unit": "nM"}, {"measurement": "EC50", "setting": "MCF-7/adr", "value": 93, "unit": "nM"}]}
{"compound": "Cc1cc(OC(F)(F)F)ccc1N(C(=O)CCl)C(C(=O)N1CCN[C@@H](C(C)C)C1)c1ccc(F)cc1", "note": "(single isomer, unassigned; dia1) [I-27 dia1]", "values": [{"measurement": "EC50", "setting": "HL-60", "value": 2000, "unit": "nM"}, {"measurement": "EC50", "setting": "HL-60/R10", "value": 17, "unit": "nM"}, {"measurement": "EC50", "setting": "MCF-7", "value": 569, "unit": "nM"}, {"measurement": "EC50", "setting": "MCF-7/adr", "value": 131, "unit": "nM"}]}
{"compound": "Cc1cc(Oc2ccccc2)ccc1N(C(=O)CCl)C(C(=O)N1CCN(C(=O)OC(C)(C)C)C(C(=O)NCc2ccccc2)C1)c1cccs1", "note": "(single isomer, unassigned; dia1) [I-53 dia1]", "values": [{"measurement": "EC50", "setting": "HL-60", "value": 1980, "unit": "nM"}, {"measurement": "EC50", "setting": "HL-60/R10", "value": 645, "unit": "nM"}, {"measurement": "EC50", "setting": "MCF-7", "value": 2060, "unit": "nM"}, {"measurement": "EC50", "setting": "MCF-7/adr", "value": 462, "unit": "nM"}]}
{"compound": "CC[C@H]1CN(C(=O)C(c2ccc(F)cc2)N(C(=O)CCl)c2ccc(Oc3ccccc3)cc2C)CCN1", "note": "(single isomer, unassigned; dia2) [I-17 dia2]", "values": [{"measurement": "EC50", "setting": "HL-60", "value": 1600, "unit": "nM"}, {"measurement": "EC50", "setting": "HL-60/R10", "value": 49, "unit": "nM"}, {"measurement": "EC50", "setting": "MCF-7", "value": 1990, "unit": "nM"}, {"measurement": "EC50", "setting": "MCF-7/adr", "value": 152, "unit": "nM"}]}
{"compound": "CC[C@@H]1CN(C(=O)C(c2ccc(F)cc2)N(C(=O)CCl)c2ccc(Oc3ccccc3)cc2C)CCN1", "note": "(single isomer, unassigned; dia2) [I-18 dia2]", "values": [{"measurement": "EC50", "setting": "HL-60", "value": 352, "unit": "nM"}, {"measurement": "EC50", "setting": "HL-60/R10", "value": 44, "unit": "nM"}, {"measurement": "EC50", "setting": "MCF-7", "value": 591, "unit": "nM"}, {"measurement": "EC50", "setting": "MCF-7/adr", "value": 152, "unit": "nM"}]}
{"compound": "C[C@H]1CN(C(=O)C(c2ccc(F)cc2)N(C(=O)CCl)c2ccc(Oc3ccccc3)cc2)CCN1", "note": "(single isomer, unassigned; dia2) [I-21 dia2]", "values": [{"measurement": "EC50", "setting": "HL-60", "value": 630, "unit": "nM"}, {"measurement": "EC50", "setting": "HL-60/R10", "value": 8, "unit": "nM"}, {"measurement": "EC50", "setting": "MCF-7", "value": 869, "unit": "nM"}, {"measurement": "EC50", "setting": "MCF-7/adr", "value": 10, "unit": "nM"}]}
{"compound": "C[C@@H]1CN(C(=O)C(c2ccc(F)cc2)N(C(=O)CCl)c2ccc(Oc3ccccc3)cc2)CCN1", "note": "(single isomer, unassigned; dia2) [I-22 dia2]", "values": [{"measurement": "EC50", "setting": "HL-60", "value": 1150, "unit": "nM"}, {"measurement": "EC50", "setting": "HL-60/R10", "value": 18, "unit": "nM"}, {"measurement": "EC50", "setting": "MCF-7", "value": 430, "unit": "nM"}, {"measurement": "EC50", "setting": "MCF-7/adr", "value": 34, "unit": "nM"}]}
{"compound": "Cc1cc(OC(C)C)ccc1N(C(=O)CCl)C(C(=O)N1CCN[C@@H](C(C)C)C1)c1ccc(F)cc1", "note": "(single isomer, unassigned; dia2) [I-26 dia2]", "values": [{"measurement": "EC50", "setting": "HL-60", "value": 630, "unit": "nM"}, {"measurement": "EC50", "setting": "HL-60/R10", "value": 8, "unit": "nM"}, {"measurement": "EC50", "setting": "MCF-7", "value": 869, "unit": "nM"}, {"measurement": "EC50", "setting": "MCF-7/adr", "value": 10, "unit": "nM"}]}
{"compound": "Cc1cc(OC(F)(F)F)ccc1N(C(=O)CCl)C(C(=O)N1CCN[C@@H](C(C)C)C1)c1ccc(F)cc1", "note": "(single isomer, unassigned; dia2) [I-27 dia2]", "values": [{"measurement": "EC50", "setting": "HL-60", "value": 1150, "unit": "nM"}, {"measurement": "EC50", "setting": "HL-60/R10", "value": 18, "unit": "nM"}, {"measurement": "EC50", "setting": "MCF-7", "value": 430, "unit": "nM"}, {"measurement": "EC50", "setting": "MCF-7/adr", "value": 34, "unit": "nM"}]}
